Measurements: patent publication US12570617B2 (Kyungpook National University Industry-Academic Cooperation …, priority 2020, dated 2026)

Columns and labels:
[1] = system: postoperative ileus (POI) mouse model; assay: Delayed gastric emptying in postoperative ileus (POI) mouse model; type: in vivo; details: POI mice, oral 10, 20, 30 mg/kg 20 hours after POI surgery
Method: (§1) Mice aged 6-8 weeks were fasted for one day and then anesthetized with a mixture of ketamine and xylazine. The abdomen and peritoneum were then incised, and the small intestine was exposed on a sterile gauze pad. Manipulation was performed from the duodenum to the cecum for 5 minutes by using a sterile cotton swab. After surgery, the abdomen was sutured and the mice were allowed to recover for 4 hours in a cage maintained at 32 degrees.
Triazole compounds (10 mg/kg, 20 mg/kg and 30 mg/kg) were orally administered 20 hours after POI surgery. […] After 30 minutes, the stomach of the mouse was removed and put into a 0.1N NaOH 2 ml solution to homogenize same. 3 ml of 0.1N NaOH solution was added and centrifuged at 3000 rpm at 4 degrees for 10 minutes. After adding […] of 20% trichloroacetic acid to the supernatant, the mixture was centrifuged at 3000 rpm at 4 degrees for 10 minutes. […] The percentage of the gastric emptying delay was calculated by (1−(absorbance of test sample)/(baseline control absorbance)×100.

[2] = system: postoperative ileus (POI) mouse model; assay: Colon transit time of feces in postoperative ileus (POI) mouse model; type: in vivo; details: POI mice; for colon transit time of feces: oral 30 mg/kg 4 hours after POI surgery; for colon transit time of feces / feed intake: vs PBS; for body weight / feed intake: 24 hours
Method: as §1
To evaluate the colon transit time of feces, 200 ul of trypan blue dye was injected into the proximal colon before suturing after POI surgery. A triazole compound (30 mg/kg) was orally administered 4 hours after POI surgery. The mouse was transferred to a metabolic cage, and the weighed feed was administered thereinto, and the time at which the first feces stained with trypan blue appeared was measured for 24 hours. At the 24th hour, the number and weight of feces were measured, and the weight of the consumed feed and the mouse's body weight were measured.

[3] = system: cancer cachexia mouse model; assay: Cancer cachexia mouse model (CT26): grip test, Rota-rod test, cancer size, body weight, feed intake, fat and muscle weight; type: in vivo; details: cancer cachexia mice; for body weight / cancer size / muscle mass / subcutaneous fat weight / total fat weight / visceral fat weight / daily feed intake: oral 10 mg/kg daily; for muscle mass / subcutaneous fat weight / total fat weight / visceral fat weight: 20th day
Method: Cultured 1×10^6 cells were subcutaneously injected into the right side of the abdomen of 10-week-old mice. The size of the cancer grown in the right abdomen, body weight, and feed intake were measured once every time after cell injection, and 10 mg/kg of a triazole compound was orally administered daily from the 9th day. On the 18th day of cancer cell injection, each of the grip test and Rota-rod test for evaluating the muscle function was performed for 1 day. On the 20th day, subcutaneous fat, visceral fat and muscle (femur, calf) of the mouse were separated and weighed.
For the evaluation of muscle function, the grip test was performed by holding the mouse by having the mouse hold the metal grid attached to the grip strength meter, holding the tail of the mouse, and pulling it from behind horizontally. The force applied to the metal grid immediately before losing the grip was recorded in the measuring instrument as the maximum tension in g, and the entire process was performed 9 times per subject to record the average value. In the Rota-rod test (Ugo Basile, Comerio, VA, Italy), Rota-rod exercise was performed at least three times at a rotational speed of 4 rpm by using a machine equipped with a rod with the diameter of 3 cm appropriately processed to provide grip to measure the endurance time of the tested animals in seconds and record the average value. Each Rota-rod behavior test was not to exceed 5 minutes per time.

ghrelin receptor [4] = biological target: T1, ghrelin receptor (Homo sapiens, UniProt Q92847); assay: Intracellular calcium influx in HEK293 cells overexpressing a ghrelin receptor; type: cell-based; set-up: host or cells: HEK293 (ATCC); details: read-out: EC50, concentration capable of inducing 50% intracellular calcium influx
Method: Human embryonic kidney 293 (HEK293) cells were purchased from ATCC and cultured in a DMEM medium comprising 10% FBS at 37° C. and in 5% CO2.
After treating the cells with 100 ul of a wash buffer, fluorescently labeled intracellular calcium was imaged at an excitation wavelength of 485 nm and an emission wavelength of 520 nm for 1 minute at a shutter interval of 10 seconds under a laser scanning confocal microscope equipped with a temperature and humidity control equipment. […] Intracellular calcium fluorescence intensity by treatment with compounds was quantified by calculating same based on the fluorescence intensity when not treated with compounds.
Target sequence in this assay (Q92847 whole entry): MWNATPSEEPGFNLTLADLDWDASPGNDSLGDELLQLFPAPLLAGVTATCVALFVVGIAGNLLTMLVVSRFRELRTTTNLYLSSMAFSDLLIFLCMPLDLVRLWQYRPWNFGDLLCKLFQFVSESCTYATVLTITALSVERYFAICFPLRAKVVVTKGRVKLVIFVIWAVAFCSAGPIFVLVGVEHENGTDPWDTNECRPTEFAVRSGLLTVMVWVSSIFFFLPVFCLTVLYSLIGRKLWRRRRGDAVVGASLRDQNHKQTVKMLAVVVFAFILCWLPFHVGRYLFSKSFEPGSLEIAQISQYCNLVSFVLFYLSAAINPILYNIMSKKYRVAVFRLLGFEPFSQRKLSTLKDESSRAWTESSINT

[5] = system: 170 G protein-coupled receptors; assay: G protein coupled receptor agonist and antagonist analysis, panel of 170 receptors (Eurofins Discovery); type: cell-based; set-up: dose or concentration left out as unconfirmed; details: alone (agonist effect) or together with ligands for each receptor (antagonist effect)
Method: (§2) The efficacy of triazole compounds […] as agonists and antagonists for a total of 170 types of G protein-coupled receptors was performed by Eurofins Discovery.
(§3) The family of G protein-coupled receptors comprises many types of receptors comprising a ghrelin receptor. It was checked whether or not the triazole compounds have efficacy as agonists or antagonists of different types of G protein-coupled receptors.

ghrelin receptor [6] = biological target: T1, ghrelin receptor; assay: G protein coupled receptor agonist analysis (Eurofins Discovery), ghrelin receptor; type: cell-based; set-up: Eurofins Discovery; dose or concentration left out as unconfirmed; details: compound alone (agonist effect)
Method: as §2, §3
Target sequence in this assay (Q92847 whole entry, species assumed): as the sequence (Q92847 whole entry) above

Row | SMILES | delayed gastric emptying [1] | colon transit time of feces [2] | body weight ([2]; oral 30 mg/kg) | feed intake ([2]; oral 30 mg/kg) | body weight [3] | cancer size [3] | muscle mass ([3]; vs Vehicle) | subcutaneous fat weight ([3]; vs Vehicle) | total fat weight ([3]; vs Vehicle) | visceral fat weight ([3]; vs Vehicle) | daily feed intake ([3]; vs Vehicle) | muscle strength function (Grip test and Rota-rod test) ([3]; oral 10 mg/kg once daily from 9th day, tested 18th day, vs Vehicle) | EC50 (ghrelin receptor [4]) | specificity among 170 G protein-coupled receptors (agonist or antagonist efficacy) [5] | number and weight of feces ([2]; oral 30 mg/kg, at the 24th hour) | efficacy as a ghrelin receptor agonist (ghrelin receptor [6])
1 | CCCCCCCCCCn1cc(C(N)(CO)CO)nn1 [KARI101, 2-amino-2-(1-decyl-1H-1,2,3-triazol-4-yl) propane-1,3-diol] | significant improvement | significantly reduced | no change | increased | did not affect | did not affect | increased | increased | increased | increased | increased | significantly improved | 189 nM | – | – | –
2 | CCCCCCCCCn1cc(C(N)(CO)CO)nn1 [KARI201, 2-amino-2-(1-nonyl-1H-1,2,3-triazol-4-yl)propane-1,3-diol] | significant improvement | significantly reduced | no change | increased | did not affect | did not affect | increased | increased | increased | increased | increased | – | – | ghrelin receptor-specific agonist | increased | 83.7%
3 | CCCCCCCCCCCCn1cc(C(N)(CO)CO)nn1 [KARI001, 2-amino-2-(1-dodecyl-1H-1,2,3-triazol-4-yl)propane-1,3-diol] | – | – | – | – | – | – | – | – | – | – | – | – | 128 nM | – | – | –
